Reference: the C3SDB collision cross section collection

Assays:
[1] = instrument: DT, single field, calibrated with Agilent tune mix (Agilent)
[2] = instrument: DT, stepped-field

SMILES	collision cross section (N2) ([1]; [M+H]+) [Å²]	collision cross section (N2) ([2]; [M+H]+) [Å²]	collision cross section (N2) ([1]; [M-H]-) [Å²]	collision cross section (N2) ([2]; [M+Na]+) [Å²]	collision cross section (N2) ([1]; [M+K-2H]-) [Å²]	collision cross section (N2) ([1]; [M+Na]+) [Å²]	collision cross section (N2) ([1]; [M+Na-2H]-) [Å²]
NCCCCN=C(N)N [Agmatine]	128.2	129.96					
O=c1[nH]cc(CO)c(=O)[nH]1 [5-Hydroxymethyluracil]			119.21	142.06			
CN1c2c([nH]c(N)nc2=O)NCC1CNc1ccc(C(=O)N[C@H](CCC(=O)O)C(=O)O)cc1 (some centres not stated) [5-Methyltetrahydrofolate]	196.4	196.99		200.04			201.03
CN(CC(=O)O)/C(N)=N/P(=O)(O)O [Phosphocreatine]	144.4	153.77					
C[C@]12CCC(=O)C=C1CC[C@@H]1[C@@H]2[C@@H](O)C[C@]2(C=O)[C@@H](C(=O)CO)CC[C@@H]12 [Aldosterone]	187.7	196.05	181.09	204.09			
Cc1cn([C@@H]2O[C@H](CO)[C@@H](O)[C@H]2O)c(=O)nc1N [5-Methylcytidine]	157.4	157.51	152.63	168.97			
N[C@@H](Cc1c[nH]c2ccc(O)cc12)C(=O)O [5-Hydroxy-L-Tryptophan]		157.88		156.47			
Nc1c(Cl)c(Cl)nc(C(=O)O)c1Cl [Picloram]		142.83		156.37			
C[C@@H]1OC(O)[C@@H](O)[C@H](O)[C@@H]1O (stereo partly drawn) [6-Deoxy-L-galactose]				147.32			

More lines, now with the values ahead:

collision cross section (N2) ([1]; [M+H]+) [Å²]	collision cross section (N2) ([2]; [M+H]+) [Å²]	collision cross section (N2) ([1]; [M-H]-) [Å²]	collision cross section (N2) ([2]; [M+Na]+) [Å²]	collision cross section (N2) ([1]; [M+K-2H]-) [Å²]	collision cross section (N2) ([1]; [M+Na]+) [Å²]	collision cross section (N2) ([1]; [M+Na-2H]-) [Å²]	SMILES
	134.37	135.25					Cn1cnc2c1c(=O)[nH]c(=O)n2C [Theobromine]
			179.19	175.19	178.1		OC[C@H]1O[C@H](O[C@H]2[C@H](O)[C@@H](O)[C@H](O)O[C@@H]2CO)[C@H](O)[C@@H](O)[C@@H]1O [D-Maltose]
			141.82		140.8		OC[C@H]1OC(O)[C@@H](O)[C@@H](O)[C@@H]1O (stereo partly drawn) [D-Mannose]
	125.24	129.51					NCCc1ccc(O)c(O)c1 [Dopamine]
198.6	201.3	186.84	196.67				CCCCC[C@H](O)/C=C/[C@@H]1[C@H]2C/C(=C/CCCC(=O)O)O[C@H]2C[C@H]1O [Prostaglandin I2]
150.4	154.16	152.96	164.45				O=C(O)CCCC[C@@H]1SC[C@@H]2NC(=O)N[C@@H]21 [D-Biotin]
137.6	143.06	130.14	149.63				Cn1c(=O)c2[nH]cnc2n(C)c1=O [Theophylline]
125.3	129.32		137.3				NC(=O)c1cccnc1 [Nicotinamide]
121.4	121.6		135.56				C[N+](C)(C)CC(=O)[O-] [Betaine]
	218.73		228.6				CCCCCCCC/C=C\CCCCCCCC(=O)OC(CC(=O)[O-])C[N+](C)(C)C (configuration not stated) [Oleoylcarnitine]
